In ChEMBL document CHEMBL1131307, “Novel nonnucleoside inhibitors of HIV-1 reverse transcriptase. 8. 8-Aryloxymethyl- and 8-arylthiomethyldipyridodiazepinones” (J Med Chem, 1998):

Experiments:
[1] = biological target: Human immunodeficiency virus type 1 reverse transcriptase (Human immunodeficiency virus 1, UniProt Q72547); assay: Inhibitory activity against HIV-1 wild-type reverse transcriptase.
[2] = biological target: Human immunodeficiency virus type 1 reverse transcriptase (Human immunodeficiency virus 1, UniProt Q72547, Y181C); assay: Inhibitory activity against HIV-1 Y181C reverse transcriptase.
[3] = biological target: Human immunodeficiency virus type 1 reverse transcriptase (Human immunodeficiency virus 1, UniProt Q72547, Y188L); assay: Inhibitory activity against HIV-1 Y188L reverse transcriptase.
[4] = biological target: Human immunodeficiency virus type 1 reverse transcriptase (Human immunodeficiency virus 1, UniProt Q72547, K103N); assay: Inhibitory activity against HIV-1 Mutant Reverse transcriptase K103N
Homo sapiens [5] = species: Homo sapiens; assay: (§1) In vitro metabolism in human liver microsomes
[6] = Compound was tested for its toxicity by using MTT toxicity assay.
C8166 [7] = assay: (§2) Inhibitory activity against HIV-1 IIIB replication in C8166 cells.; assay type: functional; conditions: Homo sapiens
C8166 [8] = assay: as §2; assay type: functional, cell-based; conditions: Homo sapiens
[9] = system: Human immunodeficiency virus type 1 reverse transcriptase (Human immunodeficiency virus 1), Q72547 [Y181C]; assay: Inhibitory activity against HIV-1 Y181C reverse transcriptase at 1 uM concentration
[10] = system: Human immunodeficiency virus type 1 reverse transcriptase (Human immunodeficiency virus 1), Q72547 [R221A]; assay: Inhibitory activity against HIV-1 Y188L reverse transcriptase at 1 uM concentration
[11] = biological target: Human immunodeficiency virus type 1 reverse transcriptase (Human immunodeficiency virus 1) (UniProt Q72547); assay: Inhibitory activity against HIV-1 wild-type reverse transcriptase at 1 uM concentration
Homo sapiens [12] = species: Homo sapiens; assay: as §1; assay type: ADME
[13] = system: Human immunodeficiency virus type 1 reverse transcriptase (Human immunodeficiency virus 1), Q72547 [R221A]; assay: Inhibitory activity against HIV-1 Y188L reverse transcriptase t 1 uM concentration

CCN1c2ncc(COc3ccnc(C)c3)cc2C(=O)N(C)c2ccc(Cl)nc21
IC50 [1]: 30 nM | IC50 [2]: 30 nM | IC50 [3]: 230 nM

CCN1c2ncc(CSc3ccccc3)cc2C(=O)N(C)c2ccc(Cl)nc21
IC50 [4]: 30 nM | Metabolism (Homo sapiens [5]): 554 pmol/min/mg | IC50 [1]: 20 nM | CC30 [6]: > 60000 nM | IC90 (C8166 [7]): 13 nM | IC50 (C8166 [8]): 5 nM | IC50 [2]: 10 nM | IC50 [3]: 30 nM

CCN1c2ncc(COc3cccc(N(C)C)c3)cc2C(=O)N(C)c2ccc(Cl)nc21
inhibition [9]: 0% | inhibition [10]: 7% | inhibition [11]: 0%

CCN1c2ncc(COc3ccc(C(=O)OC)cc3)cc2C(=O)N(C)c2ccc(Cl)nc21
inhibition [9]: 33% | IC50 [1]: 800 nM | inhibition [10]: 0%

CCN1c2ncc(CSc3ncccn3)cc2C(=O)N(C)c2ccc(Cl)nc21
IC50 [1]: 30 nM | IC50 [2]: 60 nM

CCN1c2ncc(COc3ccc(O)cc3)cc2C(=O)N(C)c2ccc(Cl)nc21
inhibition [9]: 27% | IC50 [1]: 210 nM | inhibition [10]: 21%

CCN1c2ncc(COc3ccncc3)cc2C(=O)N(C)c2ccc(Cl)nc21
IC50 [4]: 70 nM | Metabolism (Homo sapiens [5]): 53 pmol/min/mg | IC50 [1]: 70 nM | CC30 [6]: > 120000 nM | IC90 (C8166 [7]): 24 nM | IC50 (C8166 [8]): 6 nM | IC50 [2]: 260 nM

CCN1c2ncc(COc3cccc(OC)c3)cc2C(=O)N(C)c2ccc(Cl)nc21
IC50 [4]: 130 nM | IC50 [1]: 100 nM | IC50 [2]: 280 nM

CCN1c2ncc(C[S+]([O-])c3ccccc3)cc2C(=O)N(C)c2ccc(Cl)nc21 (configuration not stated)
IC50 [1]: 70 nM | CC30 [6]: 45000 nM | IC50 [2]: 140 nM | IC50 [3]: 2420 nM

CCN1c2ncc(COc3cccc(N)c3)cc2C(=O)N(C)c2ccc(Cl)nc21
IC50 [1]: 50 nM | IC90 (C8166 [7]): 36 nM | IC50 (C8166 [8]): 19 nM | IC50 [2]: 100 nM | IC50 [3]: 370 nM

CCN1c2ncc(CNc3ccccc3)cc2C(=O)N(C)c2ccc(Cl)nc21
IC50 [4]: 50 nM | IC50 [1]: 80 nM | CC30 [6]: > 60000 nM | IC50 [2]: 370 nM

CCN1c2ncc(CCc3ccncc3)cc2C(=O)N(C)c2ccc(Cl)nc21
IC50 [4]: 120 nM | Metabolism (Homo sapiens [5]): 145 pmol/min/mg | IC50 [1]: 80 nM | IC50 [2]: 120 nM | IC50 [3]: 1850 nM

CCN1c2ncc(COc3cccc(F)c3)cc2C(=O)N(C)c2ccc(Cl)nc21
inhibition [9]: 11% | inhibition [10]: 16% | inhibition [11]: 24%

CCN1c2ncc(COc3cccc([N+](=O)[O-])c3)cc2C(=O)N(C)c2ccc(Cl)nc21
IC50 [1]: 170 nM | IC50 [2]: 350 nM

CCN1c2ncc(N(C)C(=O)c3ccccc3)cc2C(=O)N(C)c2ccc(Cl)nc21
inhibition [9]: 22% | IC50 [1]: 210 nM | inhibition [10]: 13%

CCN1c2ncc(NCc3ccccc3)cc2C(=O)N(C)c2ccc(Cl)nc21
IC50 [1]: 260 nM | inhibition [10]: 0% | IC50 [2]: 390 nM

Cc1ccnc2c1NC(=O)c1cccnc1N2C1CC1 [NEVIRAPINE]
Metabolism (Homo sapiens [12]): 2 pmol/min/mg

CCN1c2ncc(OCc3ccccc3)cc2C(=O)N(C)c2ccc(Cl)nc21
inhibition [9]: 0% | inhibition [10]: 0% | inhibition [11]: 20%

CCN1c2ncc(COc3cc[n+]([O-])cc3)cc2C(=O)N(C)c2cccnc21
IC50 [1]: 210 nM | IC50 [2]: 1340 nM

CCN1c2ncc(COc3ccnc(C(F)(F)F)c3)cc2C(=O)N(C)c2ccc(Cl)nc21
Metabolism (Homo sapiens [5]): 206 pmol/min/mg | IC50 [1]: 40 nM | IC50 [2]: 70 nM

CCN1c2ncc(COc3ccc(F)cc3)cc2C(=O)N(C)c2ccc(Cl)nc21
IC50 [1]: 280 nM | IC50 [2]: 1660 nM

CCN1c2ncc(COc3ccncc3)cc2C(=O)N(C)c2ccc(F)nc21
IC50 [4]: 40 nM | Metabolism (Homo sapiens [5]): 41 pmol/min/mg | IC50 [1]: 50 nM | CC30 [6]: 160000 nM | IC50 [2]: 190 nM

CCN1c2ncc(COc3cccc(C(=O)OC)c3)cc2C(=O)N(C)c2ccc(Cl)nc21
inhibition [9]: 23% | IC50 [1]: 700 nM | inhibition [10]: 11%

CCN1c2ncc(COc3cc[n+]([O-])cc3)cc2C(=O)N(C)c2ccc(Cl)nc21
inhibition [9]: 39% | IC50 [1]: 230 nM | inhibition [10]: 0%

CCN1c2ncc(CSc3[nH]cnc4nncc3-4)cc2C(=O)N(C)c2ccc(Cl)nc21
Metabolism (Homo sapiens [5]): 336 pmol/min/mg | IC50 [1]: 50 nM | CC30 [6]: 40000 nM | IC50 [2]: 70 nM | IC50 [3]: 120 nM

CCN1c2ncc(COc3cc[n+]([O-])c(C(F)(F)F)c3)cc2C(=O)N(C)c2ccc(Cl)nc21
IC50 [1]: 120 nM | IC50 [2]: 270 nM

CCN1c2ncc(COc3ccccc3)cc2C(=O)N(C)c2ccc(Cl)nc21
IC50 [4]: 20 nM | Metabolism (Homo sapiens [5]): 171 pmol/min/mg | IC50 [1]: 110 nM | CC30 [6]: > 60000 nM | IC90 (C8166 [7]): 113 nM | IC50 (C8166 [8]): 50 nM | IC50 [2]: 60 nM | IC50 [3]: 640 nM

CCN1c2ncc(C(=O)N(C)c3ccccc3)cc2C(=O)N(C)c2ccc(Cl)nc21
inhibition [9]: 20% | inhibition [13]: 46% | inhibition [11]: 15%

CCN1c2ncc(CSc3ccncc3)cc2C(=O)N(C)c2ccc(Cl)nc21
Metabolism (Homo sapiens [5]): 372 pmol/min/mg | IC50 [1]: 20 nM | IC50 [2]: 50 nM

CCN1c2ncc(CCc3ccccc3)cc2C(=O)N(C)c2ccc(Cl)nc21
IC50 [4]: 50 nM | Metabolism (Homo sapiens [5]): 288 pmol/min/mg | IC50 [1]: 50 nM | IC50 [2]: 150 nM | IC50 [3]: 960 nM

CCN1c2ncc(COc3ccncc3)cc2C(=O)N(C)c2cccnc21
IC50 [4]: 50 nM | IC50 [1]: 20 nM | CC30 [6]: > 256000 nM | IC50 [2]: 140 nM | IC50 [3]: 5520 nM

CCN1c2ncc(COc3cccc(C(=O)O)c3)cc2C(=O)N(C)c2ccc(Cl)nc21
IC50 [4]: 190 nM | IC50 [1]: 90 nM | CC30 [6]: 250000 nM | IC50 [2]: 550 nM

CCN1c2ncc(COc3cccc4[nH]ccc34)cc2C(=O)N(C)c2ccc(Cl)nc21
Metabolism (Homo sapiens [5]): 208 pmol/min/mg | IC50 [1]: 330 nM | CC30 [6]: > 30000 nM | IC50 [2]: 200 nM | IC50 [3]: 1360 nM

CCN1c2ncc(CNc3cccc(N)c3)cc2C(=O)N(C)c2ccc(Cl)nc21
IC50 [1]: 60 nM | CC30 [6]: 60000 nM | IC50 [2]: 100 nM

CCN1c2ncc(COc3cccnc3)cc2C(=O)N(C)c2ccc(Cl)nc21
IC50 [1]: 190 nM | IC50 [2]: 260 nM

CCN1c2ncc(COc3cc[n+]([O-])c(C)c3)cc2C(=O)N(C)c2ccc(Cl)nc21
IC50 [1]: 100 nM | IC50 [2]: 210 nM | IC50 [3]: 4310 nM

CCN1c2ncc(COc3ccc4[nH]ccc4c3)cc2C(=O)N(C)c2ccc(Cl)nc21
IC50 [1]: 310 nM | IC50 [2]: 90 nM

CCN1c2ncc(CN(C)c3ccccc3)cc2C(=O)N(C)c2ccc(Cl)nc21
inhibition [9]: 18% | IC50 [1]: 590 nM | inhibition [10]: 17%

CCN1c2ncc(COc3cc[n+]([O-])cc3)cc2C(=O)N(C)c2ccc(F)nc21
inhibition [10]: 31%

CCN1c2ncc(CS(=O)(=O)c3ccccc3)cc2C(=O)N(C)c2ccc(Cl)nc21
Metabolism (Homo sapiens [5]): 322 pmol/min/mg | IC50 [1]: 100 nM | IC50 [2]: 60 nM | IC50 [3]: 11000 nM

CC(C)Nc1cccnc1N1CCN(C(=O)c2cc3cc(NS(C)(=O)=O)ccc3[nH]2)CC1 [DELAVIRDINE]
Metabolism (Homo sapiens [5]): 144 pmol/min/mg

CCN1c2ncc(COc3cccc(C(N)=O)c3)cc2C(=O)N(C)c2ccc(Cl)nc21
Metabolism (Homo sapiens [5]): 292 pmol/min/mg | IC50 [1]: 30 nM | CC30 [6]: 130000 nM | IC50 [2]: 280 nM | IC50 [3]: 340 nM

CCN1c2ncc(COc3ccccc3O)cc2C(=O)N(C)c2ccc(Cl)nc21
IC50 [1]: 100 nM | IC50 [2]: 350 nM

CCN1c2ncc(COc3ccccc3C(=O)OC)cc2C(=O)N(C)c2ccc(Cl)nc21
inhibition [9]: 2% | inhibition [10]: 2% | inhibition [11]: 25%
